| Structure (SMILES) | melting point [°C] |
| --- | --- |
| CC(=O)OC1CCCCC1C(C)(C)C (configuration not stated) | 35 |
| Cc1nonc1C | -7 |
| CCCCCCn1c(=O)c2c(ncn2C)n(C)c1=O | 82 |
| O=[N+]([O-])C=Cc1ccccc1Cl | 48 |
| C/C(=N\Nc1ccc([N+](=O)[O-])cc1[N+](=O)[O-])c1ccccc1O | 259 |
| Nc1ccc(CN2CCCCC2)cc1 | 87 to 88 |
| CCOC(=O)C(Br)=NNc1ccc([N+](=O)[O-])cc1 | 199 to 200 |
| CCS(=O)CCSP(=O)(OC)OC (configuration not stated) | -49 |
| O=c1c(O)c(O)c(=O)c1=O | 331 to 334 |
| c1ccc(CNc2ccccn2)cc1 | 95 |
| CCOC(=O)c1c[nH]c(=S)[nH]c1=O | 252 |
| CSC(=CC(=C(C#N)C#N)c1ccc(Cl)cc1)SC | 106 to 110 |
| CN1CC[C@@H](c2ccc(F)cc2)[C@H](CO)C1 | 97 to 101 |
| Fc1ccc(F)c(F)c1F | -42 |
| S=C=NC(c1ccccc1)(c1ccccc1)c1ccccc1 | 138 to 140 |
| CC(C)C1(NC(=O)c2ccccc2)COCOC1=O (racemic) | 161 to 162 |
| NNc1ncc(C(=O)OCc2ccc(Cl)cc2)c(C(F)(F)F)n1 | 111 to 113 |
| Nc1cc(CCNC(=O)c2ccccc2)ccc1CCNC(=O)c1ccccc1 | 210 |
| CN(C)CCCN | -60 |
| Nc1nccnn1 | 176 |
| COC(=O)CCc1cc2c(cc1NC(C)=O)NC(=O)CC2 | 245 |

| Structure (SMILES) | melting point [°C] |
| --- | --- |
| CN(C)c1ccc(C2C(C#N)=C(N)SC(N)=C2c2nc3ccccc3s2)cc1 (configuration not stated) | 211 |
| O=C=Nc1csc(-c2ccc(C(F)(F)F)cc2)n1 | 51 |
| O=C1NC(=NN=Cc2ccccc2)SC1=Cc1ccccc1 | 295 |
| NC(=O)C1CCN(c2nccc(C(F)(F)F)n2)CC1 | 194 to 196 |
| O=C(Nc1cccc(Cl)c1)Nc1nnc(-c2ccc(Cl)cc2)o1 | 246 to 247 |
| c1ccc(CNc2ccccc2)cc1 | 37.5 |
| C1CSC1 | -73.2 |
| NS(=O)(=O)c1cc(C(F)(F)F)ccc1C(F)(F)F | 147 |
| CC1CCCC(C)C1O (configuration not stated) | 32.5 |
| COc1ccc(C=C2C3=C(CCCC3)OC3=C2CCCC3)cc1 | 123 to 124 |
| CC(=O)Nc1sc2c(c1C#N)CCCC2 | 215 to 217 |
| C1CCSSC1 | 32.5 |
| O=C(O)c1ccc2c(c1)OCCOCCOCCOCCOCCO2 | 121 to 126 |
| CC(C)N1CSc2nnc(-c3cccnc3)n2C1 | 289 |
| O=C(C=Cc1ccccc1)n1ccnc1 | 127 to 133 |
| CC(C)CCCC(C)C1CCC2C3CC=C4C=CCCC4(C)C3CCC12C (configuration not stated) | 80 |
| Nc1nn2c(C(F)(F)F)cc(-c3cccs3)nc2c1/N=N/c1ccc(C(=O)O)cc1 | 184 |
| CC(C)[C@@H]1COC(=O)N1 | 70 to 73 |
| O=C1CCCN1C1CCCCC1 | 13 |
| CSC(SC)=C(C#N)C#N | 82 to 84 |
| N#C/C(=N\Nc1ccc([N+](=O)[O-])cc1)c1nc2ccccc2c(=O)[nH]1 | 273 |

| Structure (SMILES) | melting point [°C] |
| --- | --- |
| Cc1cc(C2(c3cc(C)c(O)c(CN(CC(=O)O)CC(=O)O)c3)OC(=O)c3ccccc32)cc(CN(CC(=O)O)CC(=O)O)c1O | 181 |
| CCC1=C(C)CN(C(=O)NCCc2ccc(S(=O)(=O)NC(=O)NC3CCC(C)CC3)cc2)C1=O (configuration not stated) | 207 |
| CN1C2CCC1CC(OC(=O)c1ccccc1)C2 (configuration not stated) | 49 |
| Cc1nc2scc(-c3ccccc3)c2c(=O)n1NC(=O)c1ccc(F)cc1 | 138 to 140 |
| CC(=O)Nc1ccc(C=Cc2ccccc2)c([N+](=O)[O-])c1 | 192 |
| COc1ccc(-c2ccc(S(=O)(=O)NC(CCSC)C(=O)O)cc2)cc1 (configuration not stated) | 174 |
| COC(=O)c1cc(Br)cc(Br)c1N | 88 |
| CCCOC(=O)c1ccc(OC(=O)c2ccc(C(=O)Oc3ccc(C(=O)OCCC)cc3)cc2)cc1 | 129 to 205 |
| O=[N+]([O-])c1ccc(-c2csc(CCl)n2)cc1 | 154 to 158 |
| COc1ccc(C(=O)c2nn(-c3ccccc3)/c(=N\N=Cc3ccccc3Cl)s2)cc1 | 181 |
| CC1CC2C3CCC4=CC(=O)C=CC4(C)C3(F)C(O)CC2(C)C1C(=O)CO (configuration not stated) | 217 |
| FC(F)(I)C(F)(F)C(F)(F)C(F)(F)I | -9 |
| CC1(C)OC(=O)CC1CC(=O)O (configuration not stated) | 90 |
| N#CC(C(N)=O)=C(SCc1ccccc1)SCc1ccccc1 | 104 |
| O=S(=O)(Cl)c1ccc(Br)cc1C(F)(F)F | 62 to 63 |
| C[C@]12CC[C@H]3[C@@H](CCC4CC(=O)CC[C@@]43C)[C@@H]1CC[C@H]2OC=O (some centres not stated) | 124 |
| Brc1ccc(-c2ccc(Br)cc2)cc1 | 167 |
| CCN(CC)C(=S)Cl | 45 to 50 |
| CCOC(=O)c1cc2c(N)c(C(=O)OCC)sc2nc1C(F)(F)F | 181 to 183 |
| CS(=O)(=O)c1scc(-c2ccccc2)c1C#N | 164 to 166 |
| COC(=O)[C@@H](NC(=O)OCc1ccccc1)[C@@H](C)O | 92 to 94 |

| Structure (SMILES) | melting point [°C] |
| --- | --- |
| N#CC#CC#N | 20.5 |
| CC(=O)c1cc(F)cc(Cl)c1 | 53 |
| CC(C)CC1=C/C(=C/c2ccc(-c3cccc([N+](=O)[O-])c3)o2)C(=O)O1 | 164 |
| O=C(O)CCCCCCCCCCCCC(=O)O | 127 |
| Sc1nc(-c2ccccc2)c(-c2ccccc2)[nH]1 | 300 |
| COc1cc([N+](=O)[O-])cc(C=O)c1O | 140 |
| O=CC(Br)(Br)Br | -57.5 |
| C#Cc1ccc(-c2cnco2)cc1 | 76 to 77 |
| CC1=C(C)S(=O)(=O)CCS1(=O)=O | 168 |
| CCCCCCCCCCCCCCCCCCCC(=O)OC | 54.5 |
| CCCC1CC(C(=O)NC(C(C)Cl)C2OC(SC)C(O)C(O)C2O)N(C)C1 (configuration not stated) | 141 |
| CC(C(O)c1ccccc1)N(C)CC=Cc1ccccc1 (configuration not stated) | 75 |
| CCOC(=O)C1=NN(c2ccc(Cl)cc2Cl)C(=O)C1C(Cl)C1(Cl)C(=O)N(c2ccc(Cl)cc2Cl)N=C1C(=O)OCC (configuration not stated) | 99 |
| O=C1C(=C2c3ccccc3C(=O)C2c2cc(Cl)c([N+](=O)[O-])cc2[N+](=O)[O-])C(=O)c2ccccc21 (configuration not stated) | 218 |
| NC(CO)Cc1ccccc1 (configuration not stated) | 91.5 |
| CC12CCC3C(CC=C4CC(Cl)CCC43C)C1CCC2=O (configuration not stated) | 157 |
| Cn1c(=O)c(C2=NNC(=O)C2=Cc2c(O)ccc3ccccc23)c(O)c2ccccc21 | 285 |
| O=C(O)COc1cccc(OCC(=O)O)c1 | 194 |
| CC(=O)CCC1C(=O)N(c2ccccc2)N(c2ccccc2)C1=O | 116 |
| Cc1ccc(-c2ccc(C=C3C(=O)OC(C)(C)OC3=O)o2)cc1 | 166 |
| FC(F)(F)c1ccccc1CCc1ccccc1C(F)(F)F | 75 |

Results, then the molecule that gave them:

| melting point [°C] | Structure (SMILES) |
| --- | --- |
| 186 | Cc1ccc(C(=O)O)c([N+](=O)[O-])c1O |
| 182 to 183 | Cc1oc(-c2ccccc2)nc1C(=O)O |
| 125 | Cc1cc(C)c(N)c(C(O)c2ccccc2)c1 (configuration not stated) |
| 53 | O=S(=O)(Cl)c1c(Cl)cccc1Cl |
| 70 | Cc1cc(OCc2ccccc2)ccc1[N+](=O)[O-] |
| 52 to 55 | COC(=O)c1cccc(N)c1 |
| 157 | Cc1ccc(N)c(O)c1 |
| 183 | Cc1oc(-c2ccccc2)cc1C(=O)O |
| 303 | O=C1C(=Cc2ccc(O)c(O)c2)Oc2cc(O)ccc21 |
| 228 to 232 | Cc1ccnc(O)c1[N+](=O)[O-] |
| -45 | CCN(CC)C(=O)c1cccc(C)c1 |
| 76 | CC(=O)CCc1oc2ccc(C)cc2c1-c1ccc(C)o1 |
| 158 | Nc1cccc([N+](=O)[O-])c1N |
| -13.5 | Cc1ccccc1C#N |
| 33.5 | Cc1ccc2c(C)cccc2c1C |
| 146 to 148 | O=C(Nc1cccnc1Cl)c1ccc(Cl)cc1 |
| 152 | Cn1ccc(=O)c2ccccc21 |
| 82 | CCc1ssc(=O)c1-c1ccccc1 |
| 124 | O=[N+]([O-])c1cccc(C=NO)c1 |
| 163 | CC(=O)Nc1ccc(C#N)c(C)c1 |
| 280 | CC(C)(C)C(=O)Nc1ncccc1C(=O)O |
| 89 | O=C(O)c1cccc(OC(F)(F)F)c1 |

| melting point [°C] | Structure (SMILES) |
| --- | --- |
| 48 to 49 | Cn1nc(C(=O)Cl)cc1-c1cccs1 |
| 318 to 320 | O=C(O)c1ccc(-n2cncn2)cc1 |
| 53 | Cc1cc(C)c(C#N)c(C)c1 |
| 139 | Cc1ccc(C(=O)C=CC(=O)O)cc1 |
| 86 to 88 | Nc1ccc(F)cc1N |
| 200 | N#Cc1cc2ccccc2oc1=N |
| 87.5 | COc1ccccc1NC(C)=O |
| 72 to 74 | CC(=NO)c1ccc(F)cc1 |
| 208 | Cc1nnc(NS(=O)(=O)c2ccc(N)cc2)s1 |
| 123 to 125 | Cc1ccc2sc(C(=O)CBr)c(C)c2c1 |
| 158 | c1ccc2c(c1)nnc1ccccc12 |
| 144 to 145 | N#Cc1ccc(N)c(N)c1 |
| 33 | CC(=O)c1ccc(C)c(F)c1 |
| 78 | O=Cc1ccc2c(Br)cccc2c1 |
| 48 to 51 | CCOC(=O)c1cc(-c2cccs2)on1 |
| 116 | C=CCSC(=O)n1c(N)c(-c2ccccc2C)c(=O)n1C(C)C |
| 286 to 288 | Sc1ncnc2c1cnn2-c1ccccc1 |
| 65 to 67 | COc1cc(-c2ccccc2)c(C)cc1N |
| 155 to 157 | Cc1cccc2c(O)noc12 |
| 101 | O=C(O)Cc1cccc(Br)c1 |
| 45 to 48 | CCCc1c(NCC)ccc(C(C)=O)c1O |
